The source of these data is publication PMC8623273, “Novel N7-Arylmethyl Substituted Dinucleotide mRNA 5′ cap Analogs: Synthesis and Evaluation as Modulators of Translation” (Pharmaceutics, 2021).

In assay [1] the target is eukaryotic translation initiation factor 4E (eIF4E) (Mus musculus, UniProt P63073). The experiment in a line: pyrene-probe fluorescent competitive-binding assay (PyFLINT-B) for cap analog-eIF4E.
For another assay, the target named is eIF4E (Mus musculus, UniProt P63073). The experiment in a line: fluorescence anisotropy (FA) competition assay with eIF4E. The conditions noted are these: Table S2. The class given is binding. For orientation: In fluorescence polarisation assays a small probe gives low polarisation when free and higher when bound to something large.
Chain of eIF4E (P63073 whole entry): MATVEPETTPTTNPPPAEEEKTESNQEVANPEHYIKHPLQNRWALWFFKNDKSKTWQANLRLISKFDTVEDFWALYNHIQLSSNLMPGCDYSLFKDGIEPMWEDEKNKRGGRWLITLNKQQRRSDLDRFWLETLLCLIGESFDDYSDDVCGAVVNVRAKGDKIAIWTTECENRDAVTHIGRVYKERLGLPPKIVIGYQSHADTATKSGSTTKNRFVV
For assay [2], the system named is cap-dependent translation in rabbit reticulocyte lysate (RRL). The experiment in a line: inhibition of cap-dependent translation in rabbit reticulocyte lysate (RRL). Format: biochemical.

Like-named read-outs stand apart in the source and are kept apart here.

Chain of eukaryotic translation initiation factor 4E (eIF4E) (P63073 whole entry): as above

Turning to `Nc1nc(O)c2c(n1)n([C@@H]1O[C@H](COP(=O)(O)OP(=O)([O-])OP(=O)(O)OC[C@H]3O[C@@H](n4cnc5c(=O)[nH]c(N)nc54)[C@H](O)[C@@H]3O)[C@@H](O)[C@H]1O)c[n+]2Cc1ccc(F)c(F)c1` [1k, 3,4-di-F-Bn^7GpppG], the EC50 in assay [1] (Table S2) is 5.7 µM; on eIF4E (25 °C, probe m^7GTP-triazol-FAM 10 nM, eIF4E 100 nM), 0.88 ± 0.08 µM. The Kd in assay [1] (pyrene-based high-throughput competition assay, 30 °C, KD calculated from EC50, read-out: KD Cap-eIF4E ± SD) was 0.489 ± 0.077 µM; on eIF4E (calculated from EC50), 0.301 ± 0.03 µM. Moreover, the 50% inhibitory concentration (IC50) was 8.2 ± 1.1 µM in assay [2] (RRL, cap analog and mRNA added at the same time (no pre-incubation), 60 min, 30 °C, read-out: Translation Inhibition IC50); 21.4 µM in assay [2] (cap analog incubated in RRL for 1 h prior to adding mRNA, read-out: Translation Inhibition IC50 (value in brackets) (converted)).

By EC50 is commonly meant the concentration at which the effect is half-maximal. In general, Kd refers to the free concentration of one partner at which half of the binding sites on the other are occupied at equilibrium, for simple one-to-one binding. What is called IC50 is the concentration that gives 50% inhibition.
